Data on 23 compounds can be found in patent US20240398783A1, “Compounds and Pharmaceutical Compositions Comprising Inhibitors of Amyloid Peptide Interactions with Glycosaminoglycans, Methods of Treatment and Use Thereof” (Gismo Therapeutics, Inc., priority 2021, published 2024).

Counter-ions that a name gives are not always drawn. Like-named read-outs stand apart in the source and are kept apart here.

The target in experiment [1] is Tau binding to purified human brain membranes (Homo sapiens, UniProt P10636). Kind of experiment: Inhibition of Tau binding to purified human brain cell membranes (ELISA). Here is the method:
(§1) Purified human brain cell membranes were prepared by differential centrifugation as follows. Five grams of frozen human brain postmortem tissue (obtained from University of Kentucky Alzheimer's Disease Center Tissue Bank) was homogenized in 50 ml HEPES-Buffered sucrose (0.32M sucrose, 4 mM HEPES pH7.4, protease inhibitors) with a motor driven glass-teflon homogenizer. After removing nuclear and cell debris by centrifugation of homogenates at 1,000×g for 10 min at 4 degree Celsius, post-nuclear supernatant was centrifuged at 100,000×g for 30 minutes to yield the crude membrane pellet. Crude membrane pellet was re-suspended in 0.32M sucrose, then centrifuged again at 100,000×g for 30 minutes to yield washed membrane pellet. Membrane pellet was resuspended in sterile PBS (pH7.4), quickly frozen, and kept in aliquots at −80 degrees Celsius. This preparation contains human brain cell membranes. Protein concentration was measured with BCA protein assay kit (Pierce Cat. No. 23227). Purified brain membranes were diluted to 0.01 mg/ml in PBS (pH 7.4) and then added to a 96 well polystyrene ELISA plate (NUNC Cat. No. 449824; 100 μl per well). Plates were incubated Over Night (ON) at 4 degrees Celsius. Following the incubation, the plate was washed consecutively, by immersion, with de-ionized water and PBS (pH 7.4). The ELISA plate was then blocked with nonfat milk (2%, 200 μl per well) for 2 hours at Room Temperature (RT). Following blocking, the plate was washed with de-ionized water then PBS (pH 7.4). GBAPs were dissolved and diluted in PBS (pH 6.5, supplemented with 0.1% BSA) at desired concentrations, added to the ELISA plates coated with brain membranes (100 μl per well) and incubated for 2 hours at RT with gentle shaking. Following incubation, the plate was washed with de-ionized water and three times with PBS (pH 6.5) plus Tween. Bound GBAP was detected by a monoclonal antibody specific for that GBAP, followed by incubation with secondary antibody conjugated to horseradish peroxidase (HRP). Antibody was diluted in PBS (pH6.5 supplemented with 1% BSA). Following each incubation with antibody, the plate was washed with de-ionized water and three times with PBS (pH6.5) wash buffer containing 0.1% Tween. The peroxidase substrate chromogen, TMB (Dako Cat. No. S1599) was added (100 μl per well) to the ELISA plate and incubated at room temperature. After 5 minutes ELISA Stop Solution (hydrochloric acid 1N, sulfuric acid 3N) was added (100 μl per well) to stop the peroxidase catalyzed colorimetric reaction. The Optical Density of the samples was measured at 450 nm using an ELISA plate reader (BioTek Synergy H1). Following color development, the % inhibition compared to control was determined. IC-50s were calculated using GraphPad Prism software.
The assay was performed as described in Example 49, with the following modifications.
Following to coating the plates with purified human brain cell membranes, plates were washed as described. The compounds were dissolved in DMSO at 10 mM final concentration and further diluted prior to assay. DMSO concentration in the screening well was up to 2%. Individual compounds were co-incubated with Tau on plates coated with purified human brain membranes. Tau purchased from rPeptide (Cat. No. T1001) was dissolved in DMSO (Sigma Cat. No. D2650), quickly frozen and kept in aliquots at −80 degrees Celsius. Tau dissolved in PBS (pH 6.5, supplemented with BSA, 0.1%) was added to the ELISA plate (100 μl per well) and incubated for 2 hours at RT with gentle shaking. Following the incubation, the plate was washed with de-ionized water and three times with PBS (pH 6.5) plus Tween. Bound Tau was detected by anti-Tau Monoclonal Antibody D-8 (Santa Cruz Cat. No. sc-166060), followed by secondary anti-IgG antibody conjugated to HRP (R&D System, Cat. No. HAF007). Following to color development with TMB, as described in Example 49, the Optical Density of the samples was measured at 450 nm using an ELISA plate reader. […]
(An ELISA detects its analyte on a solid surface through an enzyme-linked reagent.)

In experiment [2] the target is T1, Amyloid-beta(1-42) oligomer binding to purified human brain membranes (Homo sapiens, UniProt P05067).
T1 construct: Beta-amyloid (1-42) was purchased from rPeptide (Cat. No. A1163); purchased rPeptide A1163
T1 sequence (P05067 672-713): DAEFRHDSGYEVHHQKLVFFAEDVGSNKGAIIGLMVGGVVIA
The experiment is described as follows: Inhibition of Amyloid-beta(1-42) oligomer binding to purified human brain cell membranes (ELISA). To be noted: Abeta(1-42) oligomers, read-out: Abeta42/Membrane Activity (IC-50). Here is the method: as §1
(§2) The assay was performed as described in Example 49, with the following modifications. Following to coating the plates with purified human brain cell membranes, plates were washed as described. The compounds were dissolved in DMSO at 10 mM final concentration and further diluted prior to assay. DMSO concentration in the screening well was up to 2%. Individual compounds were co-incubated with Beta-amyloid peptides on plates coated with purified human brain membranes. Beta-amyloid (1-42) oligomers were prepared as described in Example 2. Beta-amyloid (1-40) from rPeptide (Cat No. A1153) was dissolved in DMSO, quickly frozen and kept in aliquots at −80 degrees Celsius. Beta-amyloid (1-42) oligomers or Beta-amyloid (1-40) dissolved in PBS (pH 6.5, supplemented with BSA, 0.1%) were added to the ELISA plate (100 μl per well) and incubated for 2 hours at RT with gentle shaking. Following the incubation, the plate was washed with de-ionized water and three times with PBS (pH 6.5) plus Tween. […]

Experiment [3] deals with T2, Amyloid-beta(1-40) binding to purified human brain membranes (Homo sapiens, UniProt P05067).
T2 construct: Beta-amyloid (1-40) from rPeptide (Cat No. A1153) was dissolved in DMSO; purchased rPeptide A1153
T2 sequence (P05067 672-711): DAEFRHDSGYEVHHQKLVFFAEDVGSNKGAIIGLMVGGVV
The experiment is described as follows: Inhibition of Amyloid-beta(1-40) binding to purified human brain cell membranes (ELISA). To be noted: Abeta(1-40), read-out: Abeta40/Membrane Activity (IC-50). As to the method:
as §1, §2

Chain of Tau binding to purified human brain membranes (P10636 with tags, fused parts or gaps): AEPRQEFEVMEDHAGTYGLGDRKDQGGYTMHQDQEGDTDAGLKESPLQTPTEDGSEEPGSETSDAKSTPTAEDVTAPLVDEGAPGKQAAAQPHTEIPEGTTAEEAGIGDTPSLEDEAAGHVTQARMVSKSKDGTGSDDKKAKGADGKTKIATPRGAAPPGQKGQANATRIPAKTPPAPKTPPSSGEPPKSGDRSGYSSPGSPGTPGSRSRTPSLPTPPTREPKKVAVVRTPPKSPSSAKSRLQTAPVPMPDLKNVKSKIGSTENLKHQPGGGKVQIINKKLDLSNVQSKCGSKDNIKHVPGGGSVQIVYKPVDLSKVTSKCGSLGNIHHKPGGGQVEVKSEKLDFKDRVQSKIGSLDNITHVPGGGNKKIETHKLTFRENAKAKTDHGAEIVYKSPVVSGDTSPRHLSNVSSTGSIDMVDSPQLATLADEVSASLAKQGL

Take `Cc1ncn(-c2ccc(/C=N/Nc3ccnc4cc(Cl)ccc34)cc2)c1C` [Compound 2, (E)-7-chloro-4-((E)-(4-(4,5-dimethyl-1H-imidazol-1-yl)benzylidene)hydrazono)-1,4-dihydroquinoline]: the IC50 in experiment [1] came to 11.4 µM.
On the same count and under the same terms, as for `Fc1ccc2c(N/N=C/c3ccc(-n4ccnc4)cc3)ccnc2c1` [Compound 5, (E)-4-(2-(4-(1H-imidazol-1-yl)benzylidene)hydrazinyl)-7-fluoroquinoline], the figure is 0.84 µM; as for `Fc1ccc2c(N/N=C/c3ccc(CN4CCOCC4)cc3)ccnc2c1` [Compound 6, (E)-4-(4-((2-(7-fluoroquinolin-4-yl)hydrazono)methyl)benzyl)morpholine], 0.63 µM.
As to `CN1CCN(Cc2ccc(/C=N/Nc3ccnc4cc(Cl)ccc34)cc2)CC1` [Compound 7, (E)-7-chloro-4-(2-(4-((4-methylpiperazin-1-yl)methyl)benzylidene)hydrazinyl)quinolone], in experiment [1], the IC50 worked out at 1.22 µM.
For the compound `COc1cc2nccc(NN=Cc3ccc(-n4ccnc4)c(C)c3)c2cc1OC` [Compound 11, 4-(2-(4-(1H-imidazol-1-yl)-3-methylbenzylidene)hydrazineyl)-6,7-dimethoxyquinoline hydrochloride], the IC50 in experiment [1] turned out to be 8.31 µM.
The same measure, in the same setting: as for `COc1ccc2c(NN=Cc3ccc(-n4ccnc4)c(C)c3)ccnc2c1` [Compound 12, 4-(2-(4-(1H-imidazol-1-yl)-3-methylbenzylidene)hydrazineyl)-7-methoxyquinoline], the figure is 29.9 µM.
With `Cc1ncn(-c2ccc(/C=N\Nc3ncnc4cc(Cl)ccc34)cn2)c1C` [Compound 15, 7-chloro-4-(2-((6-(4,5-dimethyl-1H-imidazol-1-yl)pyridin-3-yl)methylene)hydrazineyl)quinazoline hydrochloride], the IC50 in experiment [2] worked out at 7.05 µM.
For the compound `C/C(=N\Nc1ncnc2cc(Cl)ccc12)c1ccc(-n2cc[n+](C)c2)nc1` [Compound 17, (E)-1-(5-(1-(2-(7-chloroquinazolin-4-yl)hydrazineylidene)ethyl)pyridin-2-yl)-3-methyl-1H-imidazol-3-ium iodide phosphoric acid salt], the IC50 in experiment [3] was found to be 27.9 µM.
Regarding `C/C(=N\Nc1ncnc2cc(Cl)ccc12)c1ccc(-n2cc(C)nc2C)nc1` [Compound 18, (E)-7-chloro-4-(2-(1-(6-(2,4-dimethyl-1H-imidazol-1-yl)pyridin-3-yl)ethylidene)hydrazineyl)quinazoline phosphoric acid salt], the IC50 in experiment [3] is 17.3 µM.
As for `C/C(=N\Nc1ncnc2ccccc12)c1ccc(-n2cc(C)nc2C)nc1` [Compound 19, (E)-4-(2-(1-(6-(2,4-dimethyl-1H-imidazol-1-yl)pyridin-3-yl)ethylidene)hydrazineyl)quinazoline], the IC50 in experiment [3] worked out at 3.09 µM.
As for `C/C(=N\Nc1ncnc2cc(F)ccc12)c1ccc(-n2cnc(C)c2C)nc1` [Compound 21, (E)-4-(2-(1-(6-(4,5-dimethyl-1H-imidazol-1-yl)pyridin-3-yl)ethylidene)hydrazineyl)-7-fluoroquinazoline], the IC50 stood at 5.95 µM in experiment [3] and 3.3 µM in experiment [2].
The matching figures for `CC(=NNc1ccnc2cc(Cl)ccc12)c1ccc(-n2cnc(C)c2C)nc1` [Compound 22, 7-chloro-4-(2-(1-(6-(4,5-dimethyl-1H-imidazol-1-yl)pyridin-3-yl)ethylidene)hydrazineyl)quinoline]: 1.78 µM and 3.56 µM.
The matching figures for `Cc1ncn(-c2ccc(Nc3ncnc4cc(Cl)ccc34)cn2)c1C` [Compound 25, 7-chloro-N-(6-(4,5-dimethyl-1H-imidazol-1-yl)pyridin-3-yl)quinazolin-4-amine]: 4.68 µM and 7.01 µM.
Take `C/C(=N\Nc1ncnc2cc(F)ccc12)c1ccc(-n2cc[n+](C)c2)nc1` [Compound 26, (E)-1-(5-(1-(2-(7-fluoroquinazolin-4-yl)hydrazineylidene)ethyl)pyridin-2-yl)-3-methyl-1H-imidazol-3-ium phosphoric acid salt]: in experiment [3], the IC50 stood at 1.51 µM.
Consider `C/C(=N\Nc1ncnc2cc(Cl)ccc12)c1ccc(-n2cc(C)nc2C)nc1` [Compound 27, (E)-7-chloro-4-(2-(1-(6-(2,4-dimethyl-1H-imidazol-1-yl)pyridin-3-yl)ethylidene)hydrazineyl)quinazoline hydrochloride], for which the IC50 in experiment [3] amounted to 2.23 µM; in experiment [2] it was 3.97 µM.
For the compound `CC(=NNc1ncnc2cc(Cl)ccc12)c1ccnc(-n2cnc(C)c2C)c1` [Compound 28, 7-chloro-4-(2-(1-(2-(4,5-dimethyl-1H-imidazol-1-yl)pyridin-4-yl)ethylidene)hydrazineyl)quinazoline], in experiment [3], the IC50 came out at 3.71 µM.
For the compound `Clc1ccc2c(Nc3ccc(-n4cncn4)nc3)ncnc2c1` [Compound 34, N-(6-(1H-1,2,4-triazol-1-yl)pyridin-3-yl)-7-chloroquinazolin-4-amine phosphoric acid salt], the IC50 in experiment [2] was 10.4 µM.
Turning to `Fc1cc(/C=N/Nc2ccnc3cc(Cl)ccc23)ccc1-n1ccnc1` [Compound 35, (E)-7-chloro-4-(2-(3-fluoro-4-(1H-imidazol-1-yl)benzylidene)hydrazineyl)quinoline hydrochloride], the IC50 in experiment [3] is 41.5 µM; in experiment [2] it was 10.4 µM.
Regarding `CC(=NNc1ccnc2cc(Cl)ccc12)c1ccc(-n2ccnc2)cc1` [Compound 36, 4-(2-(1-(4-(1H-imidazol-1-yl)phenyl)ethylidene)hydrazineyl)-7-chloroquinoline phosphate], the IC50 in experiment [2] is 18.7 µM.
As for `CCN1CCN(c2ccc(Nc3ccnc4cc5ccccc5cc34)cc2)CC1` [Compound 39, N-(4-(4-ethylpiperazin-1-yl)phenyl)benzo[g]quinolin-4-amine], the IC50 in experiment [3] worked out at 1.46 µM; in experiment [1], 54.1 µM.
With `Clc1ccc2c(Nc3ccc(-n4ccnc4)nc3)ncnc2c1` [Compound 41, N-(6-(1H-imidazol-1-yl)pyridin-3-yl)-7-chloroquinazolin-4-amine], the IC50 in experiment [3] was found to be 18.7 µM; in experiment [1] (Tau, purified human brain membranes, read-out: Tau/Membrane Activity (IC-50)) it was 5.58 µM.
As to `CCN(CC)Cc1cccc(Nc2ccnc3cc(Cl)ccc23)c1` [Compound 42, 7-chloro-N-(3-((diethylamino)methyl)phenyl)quinolin-4-amine], in experiment [3], the IC50 amounted to 6.56 µM.
As to `Clc1ccc2c(Nc3ccc(-n4cncn4)nc3)ccnc2c1` [Compound 44, N-(6-(1H-1,2,4-triazol-1-yl)pyridin-3-yl)-7-chloroquinolin-4-amine], the IC50 in experiment [3] is 43 µM.
